These results are taken from ChEMBL document CHEMBL1146889, “Homo-cysteinyl peptide inhibitors of the L1 metallo-beta-lactamase, and SAR as determined by combinatorial library synthesis” (Bioorg Med Chem Lett, 2006).

Experiment [1] has as its target Beta-lactamase L1 (Stenotrophomonas maltophilia) (UniProt P52700). In words: Inhibition of Stenotrophomonas maltophilia L1 metallo beta lactamase at 200 uM.
Another experiment addresses Beta-lactamase L1 (Stenotrophomonas maltophilia, UniProt P52700). In words: Inhibition of Stenotrophomonas maltophilia L1 metallo beta lactamase.

Chain of Beta-lactamase L1 (Stenotrophomonas maltophilia) (P52700 34-290 limits assumed): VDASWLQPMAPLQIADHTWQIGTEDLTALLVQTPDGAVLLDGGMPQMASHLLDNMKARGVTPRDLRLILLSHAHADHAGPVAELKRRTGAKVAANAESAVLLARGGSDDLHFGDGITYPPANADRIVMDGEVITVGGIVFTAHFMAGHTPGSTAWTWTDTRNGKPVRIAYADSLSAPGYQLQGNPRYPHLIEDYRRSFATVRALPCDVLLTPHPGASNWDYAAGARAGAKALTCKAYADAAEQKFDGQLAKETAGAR
Chain of Beta-lactamase L1 (P52700 whole entry): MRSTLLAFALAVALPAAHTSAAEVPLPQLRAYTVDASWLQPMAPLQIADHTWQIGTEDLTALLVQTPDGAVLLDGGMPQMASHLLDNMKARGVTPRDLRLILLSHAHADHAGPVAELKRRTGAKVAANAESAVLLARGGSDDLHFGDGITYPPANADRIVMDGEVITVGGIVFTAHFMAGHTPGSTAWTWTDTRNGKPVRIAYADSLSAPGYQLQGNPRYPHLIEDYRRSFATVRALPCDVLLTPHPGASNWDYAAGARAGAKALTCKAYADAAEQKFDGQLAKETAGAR

As usually defined, the inhibition is the percentage by which the read-out fell short of the control. The compound `O=C(NC(CCS)C(=O)N[C@H](Cc1ccccc1)C(=O)O)c1ccccc1C(=O)c1ccccc1` (some centres not stated) came in with an inhibition in experiment [1] of 41%.
Turning to `NC(=O)CCC(=O)NC(CCS)C(=O)N[C@H](Cc1ccccc1)C(=O)O` (some centres not stated), in experiment [1], the inhibition was 41%.
Take `C=C(C(=O)NC(CCS)C(=O)N[C@H](Cc1ccccc1)C(=O)O)C(F)(F)F` (some centres not stated): the inhibition in experiment [1] was found to be 61%.
As to `O=C(/C=C\c1c[nH]c2ccccc12)NC(CCS)C(=O)N[C@H](Cc1ccccc1)C(=O)O` (some centres not stated), the inhibition in experiment [1] came to 21%.
The Ki is the equilibrium dissociation constant of an inhibitor or competing ligand from its target. The low end stands for tighter binding, the high end for weaker binding. Turning to `NC(=O)[C@@H](Cc1ccccc1)NC(=O)C(CCS)NC(=O)c1cccc(C(=O)O)n1` (some centres not stated), on Beta-lactamase L1, the affinity corresponds to a Ki of 26 nM.
For the compound `O=C(CO)NC(CCS)C(=O)N[C@H](Cc1ccccc1)C(=O)O` (some centres not stated), the inhibition in experiment [1] stood at 41%.
For the compound `NC(=O)[C@@H](Cc1ccccc1)NC(=O)C(CCS)NC(=O)c1cc(O)cc(C(=O)O)c1` (single isomer, unassigned), the affinity at Beta-lactamase L1, expressed as Ki, was 130 nM.
With `O=C(NC(CCS)C(=O)N[C@H](Cc1ccccc1)C(=O)O)C1CCC1` (some centres not stated), in experiment [1], the inhibition was found to be 0%.
With `O=C(NC(CCS)C(=O)N[C@H](Cc1ccccc1)C(=O)O)c1c[nH]c(=O)c(Cl)c1` (some centres not stated), the Ki on Beta-lactamase L1 worked out at 260 nM.
As to `O=C(NC(CCS)C(=O)N[C@H](Cc1ccccc1)C(=O)O)c1cccnc1` (some centres not stated), the inhibition in experiment [1] was 61%.
Compound `NC(=O)[C@@H](Cc1ccccc1)NC(=O)C(CCS)NC(=O)c1cc(O)cc(C(=O)O)c1` (stereo in doubt; 95) gave a Ki at Beta-lactamase L1 of 5.8 nM.
`O=C(NC(CCS)C(=O)N[C@H](Cc1ccccc1)C(=O)O)c1ccccc1[N+](=O)[O-]` (some centres not stated): the inhibition in experiment [1] turned out to be 61%.
In experiment [1], `O=C(O)CCCCC(=O)NC(CCS)C(=O)N[C@H](Cc1ccccc1)C(=O)O` (some centres not stated) came in with an inhibition of 41%.
Still for that read-out and setting: with `Cc1ccccc1C(=O)NC(CCS)C(=O)N[C@H](Cc1ccccc1)C(=O)O` (some centres not stated) the figure was 61%.
At Beta-lactamase L1, `CCCCc1ccc(C(=O)NC(CCS)C(=O)N[C@H](Cc2ccccc2)C(=O)O)nc1` (stereo in doubt; 6) came in with a Ki of 230 nM.
Consider `CC(=O)Oc1ccccc1C(=O)NC(CCS)C(=O)N[C@H](Cc1ccccc1)C(=O)O` (some centres not stated), for which the inhibition in experiment [1] worked out at 41%.
As to `CC(C)C(=O)NC(CCS)C(=O)N[C@H](Cc1ccccc1)C(=O)O` (some centres not stated), the inhibition in experiment [1] was 41%.
`Cc1occc1C(=O)NC(CCS)C(=O)N[C@H](Cc1ccccc1)C(=O)O` (some centres not stated): the inhibition in experiment [1] was 41%.
As to `O=C(NC(CCS)C(=O)N[C@H](Cc1ccccc1)C(=O)O)c1ccco1` (some centres not stated), in experiment [1], the inhibition worked out at 41%.
Still for that read-out and setting: in the case of `O=C(Cc1c[nH]cn1)NC(CCS)C(=O)N[C@H](Cc1ccccc1)C(=O)O` (some centres not stated) it was 41%.
For the compound `O=C(Cc1cccs1)NC(CCS)C(=O)N[C@H](Cc1ccccc1)C(=O)O` (some centres not stated), the inhibition in experiment [1] worked out at 41%.
In experiment [1], `O=C(NC(CCS)C(=O)N[C@H](Cc1ccccc1)C(=O)O)C1CCCC1` (some centres not stated) gave an inhibition of 61%.
On the same count and under the same terms, with `O=C(CC12CC3CC(CC(C3)C1)C2)NC(CCS)C(=O)N[C@H](Cc1ccccc1)C(=O)O` (some centres not stated) the figure was 61%; with `O=C(Cc1ccccc1)NC(CCS)C(=O)N[C@H](Cc1ccccc1)C(=O)O` (some centres not stated), 61%.
`CO/N=C(/C(=O)NC(CCS)C(=O)N[C@H](Cc1ccccc1)C(=O)O)c1csc(NC=O)n1` (some centres not stated) came in with an inhibition in experiment [1] of 41%.
`O=C(NC(CCS)C(=O)N[C@H](Cc1ccccc1)C(=O)O)c1ccc2[nH]ccc2c1` (some centres not stated) registered an inhibition in experiment [1] of 61%.
As to `Nc1nc(CC(=O)NC(CCS)C(=O)N[C@H](Cc2ccccc2)C(=O)O)cs1` (some centres not stated), the inhibition in experiment [1] came out at 41%.
In the case of `CCCCc1ccc(C(=O)NC(CS)C(=O)N[C@H](Cc2ccccc2)C(=O)O)nc1` (some centres not stated), the affinity on Beta-lactamase L1, expressed as Ki, was 880 nM.
As to `Cc1cn(C)c(CC(=O)NC(CCS)C(=O)N[C@H](Cc2ccccc2)C(=O)O)c1C(=O)O` (some centres not stated), in experiment [1], the inhibition came to 41%.
For `O=C(O)c1cccc(C(=O)NC(CCS)C(=O)N[C@H](Cc2ccccc2)C(=O)O)n1` (stereo in doubt; 84) [listing 1 of 2 here], the affinity on Beta-lactamase L1 corresponds to a Ki of 12 nM.
`O=C(O)c1cccc(C(=O)NC(CCS)C(=O)N[C@H](Cc2ccccc2)C(=O)O)n1` (stereo in doubt; 94) gave an inhibition constant (Ki) on Beta-lactamase L1 of 120 nM.
Compound `CC(C)CC(=O)NC(CCS)C(=O)N[C@H](Cc1ccccc1)C(=O)O` (some centres not stated) displayed an inhibition in experiment [1] of 21%.
`O=C(NC(CCS)C(=O)N[C@H](Cc1ccccc1)C(=O)O)c1cccs1` (some centres not stated) yielded an inhibition in experiment [1] of 41%.
With `O=C(N[C@H](Cc1ccccc1)C(=O)O)C(CCS)NC(=O)C(c1ccccc1)c1ccccc1` (some centres not stated), in experiment [1], the inhibition was 61%.
Regarding `Cc1ccc(C(=O)NC(CCS)C(=O)N[C@H](Cc2ccccc2)C(=O)O)s1` (some centres not stated), in experiment [1], the inhibition was found to be 41%.
`O=C(NC(CCS)C(=O)N[C@H](Cc1ccccc1)C(=O)O)c1cc[nH]c1` (some centres not stated) showed an inhibition in experiment [1] of 41%.
Same read-out and setting: with `O=C(O)CCC(=O)NC(CCS)C(=O)N[C@H](Cc1ccccc1)C(=O)O` (some centres not stated) the figure was 41%.
Consider `NC(=O)[C@@H](Cc1ccccc1)NC(=O)C(CCS)NC(=O)c1cc(O)cc(C(=O)O)c1` (single isomer, unassigned; diastereomer 1), for which, on Beta-lactamase L1, the Ki was determined as 2.1 nM.
As to `CCCC(=O)NC(CCS)C(=O)N[C@H](Cc1ccccc1)C(=O)O` (some centres not stated), the inhibition in experiment [1] was 41%.
The same measure, in the same setting: with `CCCCCCCC(=O)NC(CCS)C(=O)N[C@H](Cc1ccccc1)C(=O)O` (some centres not stated) the figure was 41%; with `O=C(NC(CCS)C(=O)N[C@H](Cc1ccccc1)C(=O)O)c1ccc2cc[nH]c2c1` (some centres not stated), 41%.
In turn, `O=C(NC(CCS)C(=O)N[C@H](Cc1ccccc1)C(=O)O)c1cnc(O)c(Cl)c1` (some centres not stated) came in with an inhibition in experiment [1] of 81%.
`CCCCc1ccc(C(=O)NC(CCS)C(=O)N[C@H](Cc2ccccc2)C(=O)O)nc1` (stereo in doubt; 91) returned an inhibition in experiment [1] of 81%.
For the compound `Cc1ccc(C(=O)NC(CCS)C(=O)N[C@H](Cc2ccccc2)C(=O)O)c(O)n1` (some centres not stated), the inhibition in experiment [1] was found to be 61%.
The compound `O=C(O)c1cccnc1C(=O)NC(CCS)C(=O)N[C@H](Cc1ccccc1)C(=O)O` (some centres not stated) gave an inhibition in experiment [1] of 41%.
Compound `O=C(Cc1cccc2ccccc12)NC(CCS)C(=O)N[C@H](Cc1ccccc1)C(=O)O` (some centres not stated) came in with an inhibition in experiment [1] of 61%.
`Cc1nocc1C(=O)NC(CCS)C(=O)N[C@H](Cc1ccccc1)C(=O)O` (some centres not stated) had an inhibition in experiment [1] of 61%.
On the same count and under the same terms, in the case of `O=C(O)c1cc(O)cc(C(=O)NC(CCS)C(=O)N[C@H](Cc2ccccc2)C(=O)O)c1` (stereo in doubt; 49) [listing 1 of 2 here] it was 81%; in that of `O=C(NC(CCS)C(=O)N[C@H](Cc1ccccc1)C(=O)O)c1ccccc1-c1ccccc1` (some centres not stated), 41%.
Consider `O=C(Cc1ccc(Br)cc1)NC(CS)C(=O)N[C@H](Cc1ccccc1)C(=O)O` (some centres not stated), for which the affinity at Beta-lactamase L1, expressed as Ki, was 3670 nM.
In experiment [1], `O=C(NC(CCS)C(=O)N[C@H](Cc1ccccc1)C(=O)O)c1cc2ccccc2s1` (some centres not stated) registered an inhibition of 61%.
With `O=C(NC(CCS)C(=O)N[C@H](Cc1ccccc1)C(=O)O)C1CCCCC1` (some centres not stated), the inhibition in experiment [1] amounted to 61%.
In experiment [1], `O=C(NC(CCS)C(=O)N[C@H](Cc1ccccc1)C(=O)O)c1cccnc1S` (some centres not stated) had an inhibition of 61%.
For `C=C(C)C(=O)NC(CCS)C(=O)N[C@H](Cc1ccccc1)C(=O)O` (some centres not stated), the inhibition in experiment [1] was 61%.
Take `O=C(O)c1ccc(C(=O)NC(CCS)C(=O)N[C@H](Cc2ccccc2)C(=O)O)cc1` (some centres not stated): the inhibition in experiment [1] came to 61%.
In experiment [1], `O=C(NC(CCS)C(=O)N[C@H](Cc1ccccc1)C(=O)O)c1ccc([N+](=O)[O-])cc1` (some centres not stated) displayed an inhibition of 41%.
Turning to `O=C(CCc1cccnc1)NC(CCS)C(=O)N[C@H](Cc1ccccc1)C(=O)O` (some centres not stated), the inhibition in experiment [1] came out at 41%.
`O=C(CC(c1ccccc1)c1ccccc1)NC(CCS)C(=O)N[C@H](Cc1ccccc1)C(=O)O` (some centres not stated) displayed an inhibition in experiment [1] of 41%.
Take `Cc1ccc(C(=O)NC(CCS)C(=O)N[C@H](Cc2ccccc2)C(=O)O)c(Cl)n1` (some centres not stated): in experiment [1], the inhibition stood at 61%.
Still for that read-out and setting: with `O=C(O)c1cccc(C(=O)NC(CCS)C(=O)N[C@H](Cc2ccccc2)C(=O)O)n1` (stereo in doubt; 84) [listing 2 of 2 here] the figure was 81%.
Still for that read-out and setting: in the case of `O=C(NC(CCS)C(=O)N[C@H](Cc1ccccc1)C(=O)O)c1ccoc1` (some centres not stated) it was 41%; in that of `O=C(Cc1c[nH]c2ccccc12)NC(CCS)C(=O)N[C@H](Cc1ccccc1)C(=O)O` (some centres not stated), 61%.
In experiment [1], `O=C(/C=C\c1ccco1)NC(CCS)C(=O)N[C@H](Cc1ccccc1)C(=O)O` (some centres not stated) had an inhibition of 21%.
Same read-out and setting: in the case of `O=C(CC(O)C(=O)O)NC(CCS)C(=O)N[C@H](Cc1ccccc1)C(=O)O` (some centres not stated) it was 41%; in that of `CC(=O)Nc1cccc(C(=O)NC(CCS)C(=O)N[C@H](Cc2ccccc2)C(=O)O)c1` (some centres not stated), 61%; in that of `O=C(N[C@H](Cc1ccccc1)C(=O)O)C(CCS)NC(=O)C12CC3CC(CC(C3)C1)C2` (some centres not stated), 61%.
The same measure, in the same setting: with `Cn1cccc1C(=O)NC(CCS)C(=O)N[C@H](Cc1ccccc1)C(=O)O` (some centres not stated) the figure was 41%; with `O=C(NC(CCS)C(=O)N[C@H](Cc1ccccc1)C(=O)O)c1ccsc1` (some centres not stated), 41%.
Consider `O=C(NC(CCS)C(=O)N[C@H](Cc1ccccc1)C(=O)O)c1ccc([N+](=O)[O-])c(O)c1` (some centres not stated), for which, in experiment [1], the inhibition worked out at 61%.
With `C=Cc1ccc(C(=O)NC(CCS)C(=O)N[C@H](Cc2ccccc2)C(=O)O)cc1` (some centres not stated), the inhibition in experiment [1] came to 61%.
`O=C(COc1ccccc1)NC(CCS)C(=O)N[C@H](Cc1ccccc1)C(=O)O` (some centres not stated) returned an inhibition in experiment [1] of 61%.
As for `C=CCCC(=O)NC(CCS)C(=O)N[C@H](Cc1ccccc1)C(=O)O` (some centres not stated), the inhibition in experiment [1] stood at 41%.
In experiment [1], `O=C(NC(CCS)C(=O)N[C@H](Cc1ccccc1)C(=O)O)c1ccccc1O` (some centres not stated) showed an inhibition of 41%.
Compound `O=C(NC(CCS)C(=O)N[C@H](Cc1ccccc1)C(=O)O)c1cnccn1` (some centres not stated) displayed an inhibition in experiment [1] of 61%.
As to `O=C(NC(CCS)C(=O)N[C@H](Cc1ccccc1)C(=O)O)c1cccc(O)c1` (some centres not stated), in experiment [1], the inhibition was 41%.
In the case of `CC(=O)CCC(=O)NC(CCS)C(=O)N[C@H](Cc1ccccc1)C(=O)O` (some centres not stated), the inhibition in experiment [1] is 41%.
For the compound `O=C(O)c1cc(O)cc(C(=O)NC(CCS)C(=O)N[C@H](Cc2ccccc2)C(=O)O)c1` (stereo in doubt; 96), the Ki on Beta-lactamase L1 came to 140 nM.
`O=C(O)c1cc(O)cc(C(=O)NC(CCS)C(=O)N[C@H](Cc2ccccc2)C(=O)O)c1` (stereo in doubt; 49) [listing 2 of 2 here] came in with a Ki on Beta-lactamase L1 of 140 nM.
Consider `Cc1ccsc1C(=O)NC(CCS)C(=O)N[C@H](Cc1ccccc1)C(=O)O` (some centres not stated), for which the inhibition in experiment [1] was 61%.
Consider `O=C(Cc1ccsc1)NC(CCS)C(=O)N[C@H](Cc1ccccc1)C(=O)O` (some centres not stated), for which, in experiment [1], the inhibition stood at 41%.
Take `C/C=C\C=C\C(=O)NC(CCS)C(=O)N[C@H](Cc1ccccc1)C(=O)O` (some centres not stated): in experiment [1], the inhibition was determined as 41%.
In turn, `O=C(NC(CCS)C(=O)N[C@H](Cc1ccccc1)C(=O)O)c1ccno1` (some centres not stated) came in with an inhibition in experiment [1] of 61%.
